The text below walks through data of patent US20250115595A1, “INHIBITORS OF HYPOXIA-INDUCIBLE FACTORS” (The Johns Hopkins University, priority 2021, published 2025).

Each structure is given as a SMILES string.

The term IC50 denotes the concentration at which inhibition is half-maximal.

For data set [1], the system named is HIF transcriptional activity. Description: Luciferase reporter assay (FLuc/RLuc) in hypoxic Hep3B-c1 cells. The class given is cell-based. The conditions noted are these: Homo sapiens, FLuc/RLuc ratio, 1% O2, 24 hours. Here is the method: The NCI CellMiner database contains expression data on 25,698 mRNAs in 60 human cancer cell lines that were exposed to 21,770 chemical compounds (Reinhold W C, et. al., Cancer Res. 2012; 72(14):3499-3511). The CellMiner database was interrogated for compounds that induced changes in gene expression highly correlated with those induced by acriflavine, but would be structurally unrelated to acriflavine. Compounds that satisfied these criteria were analyzed in Hep3B-c1 cells (Zhang H. et. al., Proc Natl Acad Sci USA. 2008; 105(50):19579-19586), which are stably transfected with: HIF dependent reporter plasmid p2.1, in which firefly luciferase (FLuc) coding sequences are located downstream from a hypoxia response element (HRE) and a basal SV40 promoter; and control reporter pSVR, in which Renilla luciferase (RLuc) coding sequences are downstream of the basal SV40 promoter only (FIG. 1A).
Hep3B-c1 cells (Zhang 2008), which are stably co-transfected with reporter plasmids p2.1, a hypoxia-inducible firefly luciferase reporter gene containing a hypoxia response element (HRE), and pSVR, a constitutively expressed Renilla luciferase reporter gene, were seeded on 24-well plates. Cells were treated with compounds the following day and exposed to 20% or 1% O2 for 24 hours. For transient transfection, cells were seeded, transfected with the listed plasmids and compounds, and exposed to 20% or 1% O2 for 24 hours. FLuc/RLuc ratios were determined using the Dual Luciferase Reporter Assay System (Promega) and the VICTOR Nivo plate reader (PerkinElmer).
A general note: Reporter assays use an easily measured gene product as a stand-in for the process of interest.

The test system of data set [2] is intratumoral gene expression. Description: RT-qPCR and ELISA of Hepa1-6 tumor tissue. The class given is in vivo, mouse. Here is the method:
RNA was extracted using TRIzol Reagent (ThermoFisher). Quantitative Real-time PCR was conducted using SYBR Green PCR Master Mix (BioRad) and reactions were run using the BioRad thermal cycler (BioRad). The mRNA expression of target genes was normalized to the expression of 18S rRNA and the fold change (FC) was calculated based on the threshold cycle (Ct) as
Human (EPO, SCF, SDF1a, VEGFA) and mouse (Cxcl1, Cxcl2, Cxcl9, Cxcl10, Il6, Il10, IL22, Vegfa) protein concentrations in tumor homogenates were determined using ELISA kits (Table 4) from Novus Biologicals. Optical density was obtained at 450 nm (corrected for readings at 570 nm) using the VICTOR Nivo plate reader (PerkinElmer). Sample protein concentration was calculated by linear regression from a standard curve.
For orientation: In qPCR the cycle at which signal appears reflects the starting amount.

The nature of data set [3]: Mouse pharmacokinetics in neurosensory retina after intraocular injection. The class given is in vivo. The method, then: Pharmacokinetic analysis of 32-134D in the neurosensory retina following intraocular administration was determined by liquid chromatography and tandem mass spectrometry (LC-MS/MS) to quantify the concentration of 32-134D in retinal tissue over 14 days following a single 70-ng intraocular injection of 32-134D (see Methods of all parameters). […] The total exposure (area under the curve or AUClast) was 72.3 nmol*day/g.
Mouse pharmacokinetics: C57BL/6 mice were administered 32-134D at 70 ng or 280 ng as a single intraocular injection. Mice (at least 3 mice per time point) were euthanized at 1, 3, 7, or 14 days after injection. For the 280-ng dose, a 10-day time point was added. 32-134D was quantified in retina by LC-MS/MS as previously described (S. Salman et al., 2022, J Clin Invest 132) with the following modifications. Retina tissue samples were homogenized in […] of 1×PBS (pH 7.4) before extraction. The standard curve and quality control samples were prepared in 1×PBS as a surrogate matrix. Retina tissue samples were then quantitated in nmol/g as: nominal concentration (nM)×initial dilution ([tissue weight (mg)+volume of solvent (μl)]/tissue weight (mg)). For all samples <10 nM, the value was reported as below the limits of detection. If at least on samples was >10 nM and one was <10 nM, then one half that value (5 nM) was imputed to calculate the concentration for that specimen and utilized in the average and standard deviation calculations.
Pharmacokinetic parameters: These were calculated from mean concentration-time data using noncompartmental methods in Phoenix WinNonlin version 8.3 (Certara, Princeton, NJ, USA). The Cmax and time to Cmax (Tmax) were the observed values. The AUClast was calculated using the log-linear trapezoidal method to the last quantifiable time point. The λz was determined from at least 3 points on the slope of the terminal phase of the concentration-time profile using a 1/y2 weighting factor. The T1/2 was determined by dividing 0.693 by […]. T1/2 was not reported if the correlation coefficient (r2) for λz was less than 0.9.
Bioanalytical method for mouse pharmacokinetics: Retina tissue samples were homogenized in 200 μL of 1×PBS (pH 7.4) before extraction. The standard curve and quality control samples were prepared in 1×PBS as a surrogate matrix for all matrices. Tissue homogenate or PBS (25 μL) was added to a borosilicate glass test tube and mixed with 150 μL of acetonitrile containing the internal standard (1 ng/mL of EXP-3179). For blank samples, 150 μL of acetonitrile was added without internal standard. Samples were vortex-mixed and centrifuged (1200×g for 5 minutes at ambient temperature) and transferred to an autosampler vial. […] The column effluent was monitored using an AB Sciex Triple Quadrupole 5500 mass spectrometer. […]

Regarding `Brc1ccc2c(-c3csc(-c4c[nH]c5c(Br)cccc45)n3)c[nH]c2c1` [Compound 32-134D, 4-(6-bromo-1H-indol-3-yl)-2-(7-bromo-1H-indol-3-yl)thiazole], in data set [1], the IC50 amounted to 2500 nM. The “tumor mRNAs encoding angiogenic factors and proteins mediating immunosuppression” value in data set [2] (Angpt14, Epo, Pgf, Vegfa, B7h4, Cd47, Cd70, Cd73, Glut1, Ldha, Pdl1, Tim3, RT-qPCR) is recorded as “significantly decreased”. In data set [2] (ELISA on tumor lysates), the “Cxcl1, Il10 and Vegfa protein levels in tumors” value is given as “significantly decreased levels”; the “Cxcl9 and Cxcl10 protein levels in tumors” value is listed as “significantly increased levels”. The “tumor expression of Cxcl9 and Cxcl10 mRNA” value in data set [2] (RT-qPCR) is listed as “increased”. In data set [2] (mouse, in vivo), the “Cxcl1, Il6 and Il10 mRNA levels in tumor tissue” value is “decreased”; the “IL22 mRNA and protein expression in Hepa1-6 tumors” value is “inhibited”. Further, the “time retina concentration exceeded in vitro IC50 of 3.5 μM” value in data set [3] (single 70-ng intraocular injection) was 5.25 days. Further, in data set [3] (single 70-ng intraocular injection, 14 days), the “total exposure (AUClast) in neurosensory retina” value worked out at 72.3 nmol·days/g. In addition, the “terminal half-life (T1/2) in retina” value in data set [3] (single intraocular injection 280 ng) is 43.2 h. Further, the “AUClast in neurosensory retina” value in data set [3] (single intraocular injection 280 ng, through 14 days) amounted to 147 nmol·days/g.
